Measurements as given in patent US20190111149A1, “ANTI-EGFR ANTIBODY DRUG CONJUGATE” (priority 2016, published 2019).
Bridge positions count the residues as written; N and C are the ends. Square brackets hold non-standard residues; d marks the D form. Ends that are not written are not given here. azido‑Phe = azido-phenylalanine, photoactivatable residue; Abu(3-Me-diazirin-3-yl) = CC1(CC[C@H](N)C(=O)O)N=N1; Bpa = N[C@@H](Cc1ccc(C(=O)c2ccccc2)cc1)C(=O)O

Target: Meditope enabled Trastuzumab
Experiment: BLI binding kinetics of meditope peptides to Meditope enabled Trastuzumab
Procedure: The binding kinetics of photo enabled meditopes to antibodies (e.g., meditope enabled Trastuzumab, T-mab, and P-mab) was tested.

Meditope enabled Trastuzumab, sequence (as listed by the source): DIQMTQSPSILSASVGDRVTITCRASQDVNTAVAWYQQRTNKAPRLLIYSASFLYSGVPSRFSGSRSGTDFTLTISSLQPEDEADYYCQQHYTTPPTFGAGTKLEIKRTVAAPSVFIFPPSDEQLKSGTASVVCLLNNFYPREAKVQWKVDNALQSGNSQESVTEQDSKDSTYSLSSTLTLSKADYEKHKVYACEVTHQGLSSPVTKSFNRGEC
Meditope enabled Trastuzumab, sequence (as listed by the source): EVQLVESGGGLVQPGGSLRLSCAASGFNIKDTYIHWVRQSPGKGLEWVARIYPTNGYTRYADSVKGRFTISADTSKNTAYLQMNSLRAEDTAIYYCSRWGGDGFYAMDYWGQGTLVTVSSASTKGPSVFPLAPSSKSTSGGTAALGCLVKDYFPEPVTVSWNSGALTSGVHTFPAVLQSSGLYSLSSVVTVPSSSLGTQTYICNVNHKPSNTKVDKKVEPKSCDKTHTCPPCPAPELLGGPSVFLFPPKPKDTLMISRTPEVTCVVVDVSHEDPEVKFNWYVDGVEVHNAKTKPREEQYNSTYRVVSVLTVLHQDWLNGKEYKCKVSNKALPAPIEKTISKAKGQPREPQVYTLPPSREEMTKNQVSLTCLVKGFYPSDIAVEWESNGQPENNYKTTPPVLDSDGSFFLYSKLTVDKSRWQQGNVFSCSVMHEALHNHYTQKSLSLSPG

| Substance | Kd (Conc. 50 nM) [nM] | Kd (Conc. 100 nM) [nM] | kon (Conc. 100 nM) [M⁻¹ s⁻¹] | Kd (Conc. 200 nM) [nM] | kon (Conc. 50 nM) [M⁻¹ s⁻¹] | kon (Conc. 200 nM) [M⁻¹ s⁻¹] |
| --- | --- | --- | --- | --- | --- | --- |
| Peptide 6: MMAD conjugated photoactivatable long cQFD photo-Met 9 (CQFDLSTR[Abu(3-Me-diazirin-3-yl)]LRCGGGK; disulfide 1-12 (inferred); also: MMAD conjugated) | < 0.001 | 2.51 | 3.65e+06 | 0.0191 |  |  |
| Peptide 10: MMAD conjugated photoactivatable long cQFD azido-Phe 3 (CQ[azido‑Phe]DLSTRRLRCGGGK; disulfide 1-12 (inferred); also: MMAD conjugated) | < 0.001 | 18100 | 266 | 30200 | 816 | 537 |
| Peptide 12: MMAD conjugated photoactivatable long cQFD benzoyl-Phe 3 (CQ[Bpa]DLSTRRLRCGGGK; disulfide 1-12 (inferred); also: MMAD conjugated) | < 0.001 | 1.22 | 9.47e+06 | 73.3 |  | 286000 |
